Test results from US8796296B2, “Aminopyrimidine derivatives as LRRK2 modulators” (Genentech, Inc., priority 2011, dated 2014).

Target: LRRK2 (Homo sapiens (Human), UniProt Q5S007, G2019S)
Assay: In Vitro LRRK2 LabChip Assay (LRRK2 Ki)
Assay type: biochemical
Procedure: In Vitro LRRK2 LabChip Assay
This assay was used to determine a compound's potency in inhibiting activity of LRRK2 by determining, Kiapp, IC50, or percent inhibition values. In a polypropylene plate, LRRK2, fluorescently-labeled peptide substrate, ATP and test compound were incubated together. Using a LabChip 3000 (Caliper Life Sciences), after the reaction the substrate was separated by capillary electrophoresis into two populations: phosphorylated and unphosphorylated. The relative amounts of each were quantitated by fluorescence intensity. LRRK2 Ki was determined according to the equation: Y=V0*(1−((x+Ki*(1+S/Km)+Et)/(2*Et)−(((x+Ki*(1+S/Km)+Et)^2−(4*Et*x))^0.5)/(2*Et))). Ki values in Table 4 and elsewhere herein are shown in μM.
Assay conditions and materials used were as follows:
LRRK2 Wild type in 5 mM MgCl2: 15 nM (Invitrogen lot #500607F)
Kinase reaction time: 2 hours
Wild type in 5 mM MgCl2: 80 μM
Kinase: LRRK2 G2019S (Invitrogen cat #PV4882). • LRRK2 Wild type (Invitrogen cat #PV4874).
Substrate: 5FAM-GAGRLGRDKYKTLRQIRQ-CONH2
Complete Reaction Buffer: H2O/25 mM Tris, pH 8.0/5 mM MgCl2/2 mM DTT/0.01% Triton X-100.
For serial dilutions, 34.6 μl DMSO was added to columns 3-24. For the assay controls, 37.5 μl DMSO was added to columns 1 and 2 of rows A and P. a,d and 50 μl 25 μM G-028831 (Staurosporine) was added to columns 1 and 2, row B. For the samples: to start at 100 μM, 37.5 μl DMSO was to columns 1 and 2, then 12.5 μl 10 mM compound; to start at 10 μM, 78 μl DMSO was added to columns 1 & 2, then 2 μl 10 mM compound; and to start at 1 μM, 25 μM compound (2 μl 10 mM cmpd+798 μl DMSO) was added to empty columns 1 and 2. A Precision instrument was used to perform 1:3.16 serial dilutions (“PLK_BM_serial_halflog”).
ATP was diluted to 282.1 μM in Complete Kinase Buffer (final concentration was 130 μM).
In Complete Reaction Buffer, substrate was diluted to 4 μM. Equal volumes of Complete Reaction Buffer and 4 μM substrate were combined to obtain the blank. Equal volumes of Complete Reaction Buffer and 4 μM substrate were combined and to the combined solution was added 2× final LRRK2 concentration.
To a 50 μl polypropylene plate, 5 μl/well buffer/substrate was added by hand to Blank wells. A Biomek FX was used to start the kinase reaction (“PLK SAR 23 ATP”). The following were added to the appropriate wells:
The plate was incubated for 2 hours in the dark. Biomek FX was used to stop the kinase reaction (“PLK Stop”), and 10 μl/well Stop solution was added to the Assay Plate.
Results were read on the LabChip 3000.
The LabChip 3000 was run using the job “LRRK2 IC50” with the following job settings: […]

Sequence of LRRK2 (Q5S007 whole entry G2019S): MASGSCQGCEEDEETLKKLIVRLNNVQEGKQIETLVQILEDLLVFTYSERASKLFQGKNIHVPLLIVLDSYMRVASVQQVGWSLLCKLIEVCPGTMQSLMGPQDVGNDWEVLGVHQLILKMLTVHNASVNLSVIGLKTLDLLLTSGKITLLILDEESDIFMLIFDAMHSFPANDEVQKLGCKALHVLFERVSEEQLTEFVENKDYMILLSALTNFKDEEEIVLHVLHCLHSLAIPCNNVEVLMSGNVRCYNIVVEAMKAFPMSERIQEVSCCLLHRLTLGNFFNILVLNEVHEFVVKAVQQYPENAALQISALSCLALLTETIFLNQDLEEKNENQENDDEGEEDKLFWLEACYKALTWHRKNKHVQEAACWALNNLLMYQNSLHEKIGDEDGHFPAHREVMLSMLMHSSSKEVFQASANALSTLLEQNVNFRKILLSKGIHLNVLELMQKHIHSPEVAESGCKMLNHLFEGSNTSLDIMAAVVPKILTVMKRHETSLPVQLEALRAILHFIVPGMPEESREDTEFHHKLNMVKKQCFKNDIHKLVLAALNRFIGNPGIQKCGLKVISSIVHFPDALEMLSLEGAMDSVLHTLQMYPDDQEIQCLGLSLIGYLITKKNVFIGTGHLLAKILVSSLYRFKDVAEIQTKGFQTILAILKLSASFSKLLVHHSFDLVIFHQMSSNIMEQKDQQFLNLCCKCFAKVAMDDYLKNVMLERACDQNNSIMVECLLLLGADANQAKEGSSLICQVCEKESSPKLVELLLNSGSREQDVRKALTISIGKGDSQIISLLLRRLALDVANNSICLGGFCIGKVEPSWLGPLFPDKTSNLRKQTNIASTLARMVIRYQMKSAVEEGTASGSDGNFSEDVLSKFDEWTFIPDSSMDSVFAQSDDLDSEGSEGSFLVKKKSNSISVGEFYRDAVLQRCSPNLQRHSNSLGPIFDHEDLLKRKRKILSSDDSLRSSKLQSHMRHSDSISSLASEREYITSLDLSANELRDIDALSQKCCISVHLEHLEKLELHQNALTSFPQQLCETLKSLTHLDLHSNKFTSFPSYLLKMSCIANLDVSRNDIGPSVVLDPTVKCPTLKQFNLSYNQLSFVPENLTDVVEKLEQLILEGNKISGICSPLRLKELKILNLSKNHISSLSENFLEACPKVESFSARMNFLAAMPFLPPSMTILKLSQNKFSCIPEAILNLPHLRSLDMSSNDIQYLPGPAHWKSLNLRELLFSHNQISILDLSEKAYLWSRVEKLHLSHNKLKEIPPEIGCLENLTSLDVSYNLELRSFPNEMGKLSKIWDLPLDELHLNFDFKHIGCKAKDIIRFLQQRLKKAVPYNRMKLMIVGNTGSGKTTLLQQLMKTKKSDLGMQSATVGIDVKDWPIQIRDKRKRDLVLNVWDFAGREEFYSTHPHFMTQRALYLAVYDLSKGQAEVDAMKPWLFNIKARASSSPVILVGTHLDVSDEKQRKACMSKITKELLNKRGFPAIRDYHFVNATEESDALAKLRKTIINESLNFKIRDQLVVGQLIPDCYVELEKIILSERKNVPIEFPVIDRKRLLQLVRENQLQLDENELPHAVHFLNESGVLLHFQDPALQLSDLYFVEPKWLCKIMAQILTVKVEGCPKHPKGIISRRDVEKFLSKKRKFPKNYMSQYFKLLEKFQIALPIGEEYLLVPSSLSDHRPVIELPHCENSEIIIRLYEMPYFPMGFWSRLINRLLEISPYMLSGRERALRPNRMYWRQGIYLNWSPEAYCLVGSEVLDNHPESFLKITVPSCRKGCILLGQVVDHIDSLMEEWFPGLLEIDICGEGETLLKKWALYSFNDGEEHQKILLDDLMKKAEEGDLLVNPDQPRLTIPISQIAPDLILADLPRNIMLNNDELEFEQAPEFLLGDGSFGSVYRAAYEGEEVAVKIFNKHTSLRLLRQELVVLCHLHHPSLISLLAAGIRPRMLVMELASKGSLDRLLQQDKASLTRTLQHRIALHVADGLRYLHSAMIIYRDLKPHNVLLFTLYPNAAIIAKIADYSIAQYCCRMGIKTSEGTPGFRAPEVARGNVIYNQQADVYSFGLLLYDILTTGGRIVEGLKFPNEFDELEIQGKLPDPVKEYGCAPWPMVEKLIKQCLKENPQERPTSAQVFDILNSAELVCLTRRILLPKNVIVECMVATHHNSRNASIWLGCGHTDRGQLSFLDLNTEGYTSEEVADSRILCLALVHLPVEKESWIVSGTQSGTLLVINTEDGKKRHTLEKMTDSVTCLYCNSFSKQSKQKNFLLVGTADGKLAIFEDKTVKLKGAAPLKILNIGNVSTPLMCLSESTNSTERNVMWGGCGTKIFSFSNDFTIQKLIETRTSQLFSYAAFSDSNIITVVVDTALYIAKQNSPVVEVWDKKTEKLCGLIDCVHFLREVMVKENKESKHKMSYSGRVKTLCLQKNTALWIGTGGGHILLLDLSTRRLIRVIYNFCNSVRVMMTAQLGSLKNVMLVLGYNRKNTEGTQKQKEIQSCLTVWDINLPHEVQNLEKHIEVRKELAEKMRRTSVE

Row | Ki [nM] | Compound
1 | 1 | CCN1CCN(C(=O)c2cn(C)c3cc(Nc4ncc(C(F)(F)F)c(NC)n4)c(Cl)cc23)CC1 [Compound 32, (5-chloro-1-methyl-6-(4-(methylamino)-5-(trifluoromethyl)pyrimidin-2-ylamino)-1H-indol-3-yl)(4-ethylpiperazin-1-yl)methanone]
2 | 3 | CNc1nc(Nc2cc3c(cc2Cl)c(C(=O)N2C[C@@H]4C[C@H]2CO4)cn3C)ncc1C(F)(F)F [Compound 33, (1S,4S)-2-oxa-5-azabicyclo[2.2.1]heptan-5-yl(5-chloro-1-methyl-6-(4-(methylamino)-5-(trifluoromethyl)pyrimidin-2-ylamino)-1H-indol-3-yl)methanone]
